Patent US20150212068A1, “Cholyl-L-Lysyl-Fluorescein Assay” (Novassay SA, priority 2012, published 2015)
“Also recorded” adds a separate entry of the source.

What was measured:
[1] = Storage stability of CLF in human plasma at −70° C. over 4 weeks (Test 4), HPLC-MS/MS; type: in vitro ADME; details: for CLF remaining / CLF concentration: (D) storage in plasma at −70° C. per title (section head prints 37° C.); for CLF remaining: vs To; for CLF concentration: 100 ng/ml, mean ± SEM (n = 2)
Procedure: A working solution of CLF was prepared at 10 μg/ml by diluting the compound in methanol (100%).
At To and 4 weeks, 72 hours and 24 hours before To, 4 μl of the working solution of CLF were added to 400 μl of human plasma. The final concentration of CLF was of 100 ng/ml. Samples were divided in 2 equal fractions of 200 μl and stored at −70° C. until further analysis.
An internal standard (IS), 5-([4,6-Dichlorotriazin-2-yl]amino)fluorescein hydrochloride, was added to each plasma sample (calibrators, QC, zero and test samples) in order to monitor the extraction. Thus, a stock solution of IS at 100 μg/ml in acetonitrile was 50-fold diluted in acetonitrile in order to obtain a final concentration of 2 μg/ml. Then, 200 μl of this solution were added to each plasma sample in order to precipitate the proteins. Samples were vortexed/mixed and centrifuged 5 min at 20,000 g (4° C.). After centrifugation, the clear supernatant (around 250 μl) was transferred into 1.2 ml HPLC glass vials and sealed. Samples were placed into the refrigerated autosampler and 20 μl were injected into the HPLC-MS/MS system. Test samples were injected twice.
HPLC separation was operated with a mixture of water and acetonitrile containing 0.1% of formic acid and the reversed phase mode was selected. The injected volume of sample was 20 μl and the “full loop” mode was applied. The temperature of the analytical column was kept at 30° C.
CLF and its IS were separated on an Acclaim 120 C18 column (5 μm, 2.1×100 mm, Dionex) by elution with a linear gradient of acetonitrile in water as described in Table 6.
An ion trap mass spectrometer equipped with an ESI interface was operated in the positive ionization mode. For each compound, the most abundant ion formed in MS was selected for MS/MS fragmentations. In order to increase the sensitivity and the specificity of the method, the MRM mode was selected. The most specific daughter ions formed in MS/MS were used for quantification.

[2] = Stability of CLF-spiked serum pools stored 48 hrs at −20° C., 4° C. and 37° C., CLF ELISA; type: in vitro ADME, human; details: for % difference (4° C. from −20° C.) / % difference (37° C. from −20° C.) / observed 4° C. / observed 37° C. / observed −20° C.: serum pool; for observed 4° C.: 48 hrs at 4° C.; for observed 37° C.: 48 hrs at 37° C.; for observed −20° C.: 48 hrs at −20° C.
Procedure: These conditions were used for all assays described in Phase 2a (above) and Phase 2b (below). See Appendix B and C for buffer and conjugate formulations respectively: • Add 25 μl/well of sample or standard (0-1000 ng/ml CLF in Buffer #24) to the wells of a streptavidin-coated microtitre plate (NovAssay, F2SAC). • Add 100 μl/well of fluorescein-biotin (Sigma B9431) at 20 ng/ml in Buffer #24+0.2% w/v ANS (Sigma 10417). • Add 100 μl/well of anti-fluorescein HRP (NovAssay, DV047/17-3) at 100 ng/ml in Buffer #24. • Incubate the plate for 30 minutes at room temperature. • Wash the plate 3 times with 800 μl/well Buffer #29 and tap the plate dry. • Add 100 μl/well of SureBlue Reserve TMB Substrate (KPL) and incubate the plate for 10 minutes at room temperature. • Stop the substrate reaction by adding 100 μl/well of 1M HCl and read the absorbance at 450 nm wavelength (ThermoFisher Scientific, Multiskan FC).
The stability study (−20° C., 4° C. and 37° C.) involved preparation of 3 serum pools spiked with 31.25 ng/ml, 125 ng/ml and 250 ng/ml CLF (aliquots of which were then stored at the 3 temperatures). Storage time was 48 hrs.

serum proteins = assay: Recovery of spiked CLF from individual human serum samples, classical and labelled-antibody competitive immunoassays; type: in vitro ADME; details: inferred from low recovery of CLF spiked into serum
Procedure: Streptavidin-coated microtitre plate Biotinylated anti-fluorescein antibody, “BJ/C” (NovAssay, using HyTest mouse monoclonal anti-fluorescein, cat code 5F3 2A3 (conjugate ref. DV038/182-1) or AbD Serotec sheep polyclonal anti-fluorescein, cat code 640001 (ref. DV038/182-2) is bound to the plate CLF from the sample competes with CLF-horseradish peroxidase, “CJ/C” (CLF-HRP; NovAssay, DV047/14) for the biotinylated anti-fluorescein antibody Bound CLF-HRP is measured colorimetrically using tetramethylbenzidine (TMB) substrate.
• Streptavidin-coated microtitre plate • Biotin-fluorescein (Sigma B9431) is bound to the plate • CLF from the sample competes with bound biotin-fluorescein for an anti-fluorescein-HRP conjugate (NovAssay, using HyTest mouse monoclonal anti-fluorescein, cat code 5F3 2A3 (conjugate ref. DV047/17-3) • Bound anti-fluorescein-HRP is measured colorimetrically using tetramethylbenzidine (TMB) substrate. […]
Given the success of achieving workable standard curves in both formats, 100 ng/ml of CLF was spiked into a number of individual human serum samples, and the percentage CLF recovery calculated (e.g. 50 ng/ml=50%). […]

CC(CCC(=O)NC(CCCCNC(=S)Nc1ccc(-c2c3ccc(=O)cc-3oc3cc(O)ccc23)c(C(=O)O)c1)C(=O)O)C1CCC2C3C(O)CC4CC(O)CCC4(C)C3CC(O)C12C [CLF, Cholyl-L-Lysyl-Fluorescein] showed a CLF remaining ([1]; 0.0 days) of 100.0%, a CLF concentration ([1]; 0.0 days) of 101.2 ± 5.8 ng/mL and a CLF concentration ([1]; 1.0 days) of 105.5 ± 2.5 ng/mL. It also gave a CLF concentration ([1]; 3.0 days) of 104.7 ± 6.9 ng/mL, a CLF concentration ([1]; 28.0 days) of 96.2 ± 1.4 ng/mL and a CLF remaining ([1]; 1.0 days) of 104.3%. It also gave a CLF remaining ([1]; 3.0 days) of 103.5%, a CLF remaining ([1]; 28.0 days (4 weeks)) of 95.0% and a plasmatic concentrations measured ([1]; plasma spiked with 100 ng/ml, stored at −70° C., 0-4 weeks) of 96.2 to 105.5 ng/mL. For the same compound, the “CLF stability in plasma on storage” value ([1]; up to 4 weeks at −70° C.) was “stable”, the “time over which CLF stability in human plasma was confirmed” value ([1]; −70° C.) was “at least 4 weeks” and the “time spiked samples can be stored” value ([2]; at 4 C., should avoid higher temperatures e.g. 37 C.) was 48 hrs at 4 C. but should avoid higher. The “% difference (4° C. from −20° C.)” value ([2]; expected 31.25 ng/ml, 48 hrs) was −8%, the “% difference (37° C. from −20° C.)” value ([2]; expected 31.25 ng/ml, 48 hrs) was −45% and the “observed 4° C.” value ([2]; expected 31.25 ng/ml) was 34 ng/mL. For the same compound, the “observed 37° C.” value ([2]; expected 31.25 ng/ml) was 20 ng/mL, the “observed −20° C.” value ([2]; expected 31.25 ng/ml) was 37 ng/mL and the “% difference (4° C. from −20° C.)” value ([2]; expected 125 ng/ml, 48 hrs) was −2%. For the same compound, the “% difference (37° C. from −20° C.)” value ([2]; expected 125 ng/ml, 48 hrs) was −20%, the “observed 4° C.” value ([2]; expected 125 ng/ml) was 107 ng/mL and the “observed 37° C.” value ([2]; expected 125 ng/ml) was 88 ng/mL. The “observed −20° C.” value ([2]; expected 125 ng/ml) was 110 ng/mL, the “% difference (4° C. from −20° C.)” value ([2]; expected 250 ng/ml, 48 hrs) was −12% and the “observed 4° C.” value ([2]; expected 250 ng/ml) was 211 ng/mL. The “observed 37° C.” value ([2]; expected 250 ng/ml) was “>off scale”, the “observed −20° C.” value ([2]; expected 250 ng/ml) was 240 ng/mL and the “storage stability of spiked samples” value ([2]; serum pools spiked with CLF, 48 hrs, 4° C. vs 37° C. (reference −20° C.)) was “can be stored for 48 hrs at 4 °C but should avoid higher temperatures”. For the same compound, the “binding of CLF to serum proteins” value (serum proteins) was “binds to serum proteins; also recorded: significant protein binding”.
